Test system: experimental allergic encephalomyelitis mice
Test: Experimental allergic encephalomyelitis, KN-93
Format: in vivo, mouse
Procedure: The efficacy evaluation of KN-93 was performed with the experimental allergic encephalomyelitis mice as an animal model of multiple sclerosis. The experimental allergic encephalomyelitis was caused following the method of Bradley et al. (J. Clinical Investigation, 107: 995-1006, 2001). That is, 150 μg of PLP partial peptide (PLP139-151: NH2—[…]—COOH, SEQ ID NO 12) mixed in a Freund complete adjuvant was injected subcutaneously to a seven-week old female SJL/J mouse (purchased from Charles River Laboratories Japan) at the rear back. The severity of the condition was indicated as a score (disease score) according to the following criteria.
0.5: Slight paralysis of tail
2: Light paralysis of hind leg
3: Medium to intense paralysis of hind leg or light forelimb paralysis
4: Complete paralysis of hind paw or medium to intense paralysis of forelimb
5: Paralysis of four limbs or toward death period
KN-93 was suspended in 0.5% methylcellulose solution (0.1 mg/ml) and 0.1 ml per 10 g mouse weight was subcutaneously administered. In a control group, only 0.5% methylcellulose solution was subcutaneously administered. The administration was started on the 7 days after sensitization and carried out once a day for consecutive 24 days.

`COc1ccc(S(=O)(=O)N(CCO)c2ccccc2CN(C)C/C=C/c2ccc(Cl)cc2)cc1` [KN-93, N-(2-[N-[4-chlorocinnamyl]-N-methylaminomethyl]phenyl)-N-(2-hydroxyethyl)-4-methoxybenzenesulfonamide, reference compound] was tested, and the “condition (disease score)” value (1 mg/kg subcutaneous once a day 24 days from 7 days after sensitization, FIG. 12) was “much lighter as compared with the control group” and the death (1 mg/kg subcutaneous once a day 24 days, control 7 of 10) was 2 of 10.

From patent publication US20080255121A1, “Combination Drug for Treating Autoimmune Disease” (DAINIPPON SUMITOMO PHARMA CO., LTD., priority 2004, published 2008)
